US20170252433A1, “PSMA-RELATED THERAPIES” (Memorial Sloan Kettering Cancer Center, priority 2014, published 2017)

Tests used:
[1] = system: PSMA-expressing prostate cancer cells (LNCaP-wt, PC3-hPSMA) and PC3-wt; test: Cytoplasmic calcium quantification (Fluo4 assay); format: cell-based, human
Experimental: Cells were seeded at a density of 10,000 per well on a 96-well plate and grown overnight. Loading of the calcium-sensing dye Fluo4 (Life Technologies, Calrsbad, Calif.) was performed according to the manufacturer's instructions. Where indicated the cells were treated with thapsigargin (1 μM, Tocris, Minneapolis, Minn.), L-Quisqualic acid (110 μM, Tocris), 3,5-DHPG (0.67 mM, Tocris), L-AP3 (125 μM, Tocris), U73122 (50 μM, Tocris), and 2-PMPA (100 μM, Tocris) immediately before measuring calcium levels, with a SpectraMax M5 plate reader (Molecular Devices, Sunnyvale, Calif.).
The effect of PSMA expression on calcium homeostasis in prostate cancer cell lines was evaluated using the fluorimetric Fluo4 assay kit (Invitrogen), according to the supplier's instructions. The plate was excited at 490 nm, and fluorescence emission was monitored at 520 nm with the SpectraMax M5 plate reader (Molecular Devices). […] To examine calcium accumulation in the cytoplasm, the cells were treated with thapsigargin (1 μM, Tocris) immediately prior to taking measurements with the plate reader. […] Furthermore, we investigated whether PSMA facilitates calcium signaling via the mGluR Group I receptors through its enzymatic activity. The cells were treated with either L-Quisqualic acid (110 μM; mGluR I agonist, Tocris), L-AP3 (125 μM; mGluR I antagonist, Tocris) or a PSMA inhibitor (100 μM, Tocris), immediately prior to taking calcium measurements.

[2] = system: LNCaP, LNCaP-KD, PC3-PSMA and PC3-wt cells; test: In vitro chemotherapy, cell viability (Alamar blue); conditions: 200 nM, overnight
Experimental: Cells were seeded in a 96-well format (2,500 cells per well), and grown for 48 h. They were then treated with the following drugs at a final concentration of 200 nM: Doxorubicin, Taxol, AZD6244, BEZ235, Lapatinib, and Velcade (all purchased from Selleck Chemicals, Houston, Tex.). For combination therapy, cells were treated with 2-PMPA (5 μM final concentration). After overnight incubation in the presence of the drugs, cell viability was determined with the Alamar blue method according to the supplier's guidelines (Life Technologies, Carlsbad, Calif.)
Given that PSMA affects the phosphorylation status of multiple targets, it was investigated whether inhibition of PSMA can counteract resistance to various chemotherapeutics used in the clinic or under clinical trials. LNCaP and PCS3-PSMA cells were seeded at a density of 2,500 cells per well in a 96-well format, and after 48 hours growth the cells were treated with the drugs (Doxorubicin (Adriamycin; DNA intercalator), Taxol (Paclitaxel; microtubule stabilizer), AZD6244 (Selumetinib; MEK1 & ERK1/2 inhibitor), BEZ235 (Dactolisib; PI3K & mTOR inhibitor), Lapatinib (EGFR and ErbB2 inhibitor), or Velcade (Bortezomib; 20S proteasome inhibitor), 200 nM final concentration in 1×PBS) or with the drugs (200 nM final concentration) and 2-PMPA (5 μM final concentration). After overnight incubation, cell viability was assessed fluorimetrically with the Alamar blue method (Invitrogen), according to the supplier's protocol.

For `N[C@@H](CP(=O)(O)O)C(=O)O` [L-AP3], the cytoplasmic calcium levels ([1]; PSMA-expressing cells, PSMA inhibitor 100 μM, L-AP3 125 μM, FIG. 1c) was “lowered calcium levels”.
With `COc1ccc2c(c1)CC[C@@H]1[C@@H]2CC[C@]2(C)[C@@H](NCCCCCCN3C(=O)C=CC3=O)CC[C@@H]12` [U73122] the cytoplasmic calcium levels ([1]; PSMA inhibition compared with Phospholipase C inhibitor U73122 50 μM, FIG. 1d) was “reduction in calcium levels”.
For `CC(C)C[C@H](NC(=O)[C@H](Cc1ccccc1)NC(=O)c1cnccn1)B(O)O` [Velcade, Bortezomib], the “sensitivity of PC3-wt cells compared with PC3-PSMA” value [2] was “more sensitive”.
For `C/C=C(/C)C(=O)O[C@H]1C(C)=C2[C@H]([C@@H]1OC(=O)CCCCCCC)[C@@](C)(OC(C)=O)C[C@H](OC(=O)CCC)[C@@]1(O)[C@H]2OC(=O)[C@@]1(C)O` [thapsigargin], the “calcium accumulation in the cytoplasm” value ([1]; thapsigargin 1 μM, PSMA-expressing cells versus PC3-wt, FIG. 1b) was “significant buildup of calcium in their cytoplasm”.
